We go through 16 compounds from patent US11028068B2, “Somatostatin modulators and uses thereof” (Crinetics Pharmaceuticals, Inc., priority 2017, dated 2021).

The structures appear in SMILES notation.

For the experiment, the target named is T1, human somatostatin receptor subtype 2 (Homo sapiens, UniProt P30874).
T1 construct: expressed in transfected cells; host or cells: CHO (Chinese hamster ovary) cells, cultured under G-418 selection
T1 sequence (P30874 whole entry): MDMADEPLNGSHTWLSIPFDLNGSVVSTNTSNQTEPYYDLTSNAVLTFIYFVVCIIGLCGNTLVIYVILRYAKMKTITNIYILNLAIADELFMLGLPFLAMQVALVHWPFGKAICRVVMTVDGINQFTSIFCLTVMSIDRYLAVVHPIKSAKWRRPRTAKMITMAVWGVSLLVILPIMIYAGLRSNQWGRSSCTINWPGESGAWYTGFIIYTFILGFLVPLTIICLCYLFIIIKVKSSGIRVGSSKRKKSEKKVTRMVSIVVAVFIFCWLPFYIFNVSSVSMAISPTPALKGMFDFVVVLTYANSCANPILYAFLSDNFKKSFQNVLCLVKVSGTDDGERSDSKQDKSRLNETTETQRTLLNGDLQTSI
Nature of the experiment: cAMP assay (inhibition of cAMP activities via sst2 receptor). To be noted: CHO cells expressing the human somatostatin receptor subtype 2, forskolin. Type of experiment: cell-based. From the text: General overview: All five SSTR subtypes are Gi coupled G-protein coupled receptors (GPCRs) that lead to decreases in intracellular cyclic AMP (cAMP) when activated by an agonist. Therefore, measurement of intracellular cAMP levels can be used to assess whether compounds of the invention are agonists of SSTR subtypes (John Kelly, Troy Stevens, W. Joseph Thompson, and Roland Seifert, Current Protocols in Pharmacology, 2005,2.2.1-2.2). One example of an intracellular cAMP assay is described below.
One day prior to the assay, 40,000 Chinese hamster ovary (CHO) cells expressing the human somatostatin receptor subtype 2 are plated in each well of a 96-well tissue culture plate in DM-MEM growth media (Gibco) with the following additives: 10% fetal bovine serum (Gibco), 100 U/mL penicillin (Gibco), 100 ug/mL streptomycin (Gibco), 10 mM HEPES (Gibco), 1.2 mM sodium hydroxide, 0.5 mg/mL G-418 (Gibco)). The cells are cultured overnight at 37° C., 5% CO2 and 95% humidity. On the day of the assay, the media is aspirated and the cells are washed with 1X Dulbecco's phosphate buffered saline (Gibco). Next, 5 μL of assay buffer (1× Earle's Balanced Salt Solution (Gibco), 5 mM MgCl2, 10 mM HEPES, 0.1% bovine serum albumin, 0.2 mM 3-Isobutyl-1-methylxanthine (IBMX, Biomol Research Labs)) and forskolin is added. Various dilutions of the compounds of the invention are prepared in assay buffer and 5 μL of the dilutions are added to the cultured cells and incubated for 15 minutes at 37° C. (the final concentration of the compounds of the invention are typically 0-10,000 nM). 10 μL of lysis buffer (HRTF cAMP kit, Cisbio) containing cAMP detection and visualization antibodies are added and the assay is allowed incubate for 1-24 hours at room temperature. The intracellular cAMP concentrations are then measured using a commercially available detection kit (for example, the cAMP HTRF kit, Cisbio). The measured intracellular cAMP concentrations are plotted vs. the concentration of the compounds of the invention and the EC50 of the compounds are calculated using standard methods.
On the technique in general: Changes in cAMP serve as a functional read-out for many G protein-coupled receptors.
By EC50 is commonly meant the concentration that produces a half-maximal response. Low values mean an effect from little substance, high ones a need for much substance. Compound `Cc1cc(F)cc(-c2cnc3ccc(-c4cncc(C#N)c4)cc3c2C(=O)N(C)C[C@@H]2CCCN2)c1` [Compound 3-8, 6-(5-cyanopyridin-3-yl)-3-(3-fluoro-5-methylphenyl)-N-methyl-N-[(2S)-pyrrolidin-2-ylmethyl]quinoline-4-carboxamide] displayed a concentration for a half-maximal effect (EC50) below 0.1 µM.
The same measure for `CN(C[C@@H]1CCCN1)C(=O)c1c(C2=CCCC2)cnc2ccc(-c3cc(F)cc(C#N)c3)nc12` [Compound 3-9, 6-(3-cyano-5-fluorophenyl)-3-(cyclopent-1-en-1-yl)-N-methyl-N-[(2S)-pyrrolidin-2-ylmethyl]-1,5-naphthyridine-4-carboxamide]: below 0.1 µM.
The same measure for `Cc1cc(F)cc(-c2cnc3ccc(-c4cnn(C)c4)cc3c2C(=O)N(C)C[C@@H]2CCCN2)c1` [Compound 3-10, 3-(3-fluoro-5-methylphenyl)-N-methyl-6-(1-methyl-1H-pyrazol-4-yl)-N-[(2S)-pyrrolidin-2-ylmethyl]quinoline-4-carboxamide]: 0.1 to 1 µM; for `CN(C[C@@H]1CCCN1)C(=O)c1c(N2CCCCC2)cnc2ccc(-c3cccc(O)c3)nc12` [Compound 3-11, 6-(3-hydroxyphenyl)-N-methyl-3-(piperidin-1-yl)-N-[(2S)-pyrroldin-2-ylmethyl]-1,5-naphthyridine-4-carboxamide]: 0.1 to 1 µM; for `CN(C[C@@H]1CCCN1)C(=O)c1c(N2CCOCC2)cnc2ccc(-c3cccc(O)c3)nc12` [Compound 3-12, 6-(3-hydroxyphenyl)-N-methyl-3-(morpholin-4-yl)-N-[(2S)-pyrrolidin-2-ylmethyl]-1,5-naphthyridine-4-carboxamide]: 0.1 to 1 µM.
`CN(C[C@@H]1CCCN1)C(=O)c1c(N2CCC(CO)C2)cnc2ccc(-c3cccc(O)c3)nc12` (stereo partly drawn) [Compound 3-17, 3-[3-(hydroxymethyl)pyrrolidin-1-yl]-6-(3-hydroxyphenyl)-N-methyl-N-[(2S)-pyrrolidin-2-ylmethyl]-1,5-naphthyridine-4-carboxamide] displayed a half-maximal effective concentration (EC50) of 0.1 to 1 µM.
With `CC#Cc1cnc2ccc(-c3cccc(O)c3)nc2c1C(=O)N(C)C[C@@H]1CCCN1` [Compound 3-18, 6-(3-hydroxyphenyl)-N-methyl-3-(prop-1-yn-1-yl)-N-((2S) -pyrrolidin-2-ylmethyl)-1,5-naphthyridine-4-carboxamide], the EC50 is 0.1 to 1 µM.
In turn, `CN(C[C@@H]1CCCN1)C(=O)c1c(N2CCO[C@H](c3ccccc3)C2)cnc2ccc(-c3cc(F)cc(C#N)c3)nc12` [Compound 3-42, 6-(3-cyano-5-fluorophenyl)-N-methyl-3-[(2R)-2-phenylmorpholin-4-yl]-N-[(2S) -pyrrolidin-2-ylmethyl]-1,5-naphthyridine-4-carboxamide] yielded an EC50 of 0.1 to 1 µM.
Turning to `CN(C[C@@H]1CCCN1)C(=O)c1c(N2CCO[C@@H](c3ccccc3)C2)cnc2ccc(-c3cc(F)cc(C#N)c3)nc12` [Compound 3-47, 6-(3-cyano-5-fluorophenyl)-N-methyl-3-[(2S)-2-phenylmorpholin-4-yl]-N-[(2S) -pyrrolidin-2-ylmethyl]-1,5-naphthyridine-4-carboxamide], the EC50 is 0.1 to 1 µM.
Compound `Cc1cc(F)cc(-c2cnc3ccc(-c4cccnc4)cc3c2C(=O)N(C)C[C@@H]2CCCN2)c1` [Compound 3-48, 3-(3-fluoro-5-methylphenyl)-N-methyl-6-(pyridin-3-yl)-N-[(2S)-pyrrolidin-2-ylmethyl]quinoline-4-carboxamide] gave an EC50 below 0.1 µM.
As for `CN(C[C@@H]1CCCN1)C(=O)c1c(N2CC(C)(C)OC(C)(C)C2)cnc2ccc(-c3cc(F)cc(C#N)c3)nc12` [Compound 3-49, 6-(3-cyano-5-fluorophenyl)-N-methyl-N-[(2S)-pyrrolidin-2-ylmethyl]-3-(2,2,6,6-tetramethylmorpholin-4-yl)-1,5-naphthyridine-4-carboxamide], the EC50 lay within 0.1 to 1 µM.
In the case of `CN(C[C@@H]1CCCN1)C(=O)c1c(N2CCc3cc(C(F)(F)F)ccc32)cnc2ccc(-c3cc(F)cc(C#N)c3)nc12` [Compound 3-54, 6-(3-cyano-5-fluorophenyl)-N-methyl-N-[(2S)-pyrrolidin-2-ylmethyl]-3-[5-(trifluoromethyl)-2,3-dihydro-1H-indol-1-yl]-1,5-naphthyridine-4-carboxamide], the concentration for a half-maximal effect (EC50) is 0.1 to 1 µM.
Next, `CN(C[C@@H]1CCCN1)C(=O)c1c(N2Cc3ccc(C(F)(F)F)cc3C2)cnc2ccc(-c3cc(F)cc(C#N)c3)nc12` [Compound 3-55, 6-(3-cyano-5-fluorophenyl)-N-methyl-N-[(2S)-pyrrolidin-2-ylmethyl]-3-[5-(trifluoromethyl)-2,3-dihydro-1H-isoindol-2-yl]-1,5-naphthyridine-4-carboxamide]: 0.1 to 1 µM; `CN(C[C@@H]1CCCN1)C(=O)c1c(N2CC3CC3C2)cnc2ccc(-c3cc(F)cc(C#N)c3)nc12` (stereo partly drawn) [Compound 3-69, 3-{3-azabicyclo[3.1.0]hexan-3-yl}-6-(3-cyano-5-fluorophenyl)-N-methyl-N-[(2S) -pyrrolidin-2-ylmethyl]-1,5-naphthyridine-4-carboxamide]: 0.1 to 1 µM.
Next, `CN(C[C@@H]1CCCN1)C(=O)c1c(N2CC3CCC(C2)O3)cnc2ccc(-c3cc(F)cc(C#N)c3)nc12` [Compound 3-70, 6-(3-cyano-5-fluorophenyl)-N-methyl-3-{8-oxa-3-azabicyclo[3.2.1]octan-3-yl}-N-[(2S) -pyrrolidin-2-ylmethyl]-1,5-naphthyridine-4-carboxamide]: 0.1 to 1 µM.
Next, `CN(C[C@@H]1CCCN1)C(=O)c1c(N2CCC(F)(F)C2)cnc2ccc(-c3cc(F)cc(C#N)c3)nc12` [Compound 3-76, 6-(3-cyano-5-fluorophenyl)-3-(3,3-difluoropyrrolidin-1-yl)-N-methyl-N-[(2S)-pyrrolidin-2-ylmethyl]-1,5-naphthyridine-4-carboxamide]: 0.1 to 1 µM.
